Data taken from publication PMC7419507, “In vitro Cas9-assisted editing of modular polyketide synthase genes to produce desired natural product derivatives” (Nature Communications, 2020).
Several values for one entry are separate records, joined by “and”; a condition that tells them apart may be missing. Equal entries are not always repeated.

Assays:
[1] = Cytotoxicity assay (CellTiter-Glo, 72 h), Jurkat; assay type: cell-based; details: human, Jurkat cells (T lymphoma), raw data (replicates)
Procedure, shortened: (§1)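 Luminescent ATP read-out (CellTiter-Glo) quantified surviving cells after a 72 h incubation with 2-fold diluted compounds in 0.5% DMSO, added 4 h post-seeding at 1000 cells/well.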

T lymphoma Jurkat cells = experiment: Cytotoxicity assay (CellTiter-Glo, 72 h), Jurkat; assay type: cell-based; details: raw data (replicates)
Procedure, shortened: as §1

[2] = Cytotoxicity assay (CellTiter-Glo, 72 h), SKOV-3; assay type: cell-based, human; details: human, raw replicate data, read-out: SKOV3 viability (%)
Procedure, shortened: as §1

[3] = tested on: human ovarian adenocarcinoma SKOV-3 cells; experiment: Cytotoxicity assay (CellTiter-Glo, 72 h), SKOV-3; assay type: cell-based; details: raw replicate data
Procedure, shortened: as §1

[4] = Cytotoxicity assay (CellTiter-Glo, 72 h), MESO-1; assay type: cell-based; details: human, MESO-1 malignant pleural mesothelioma cells, raw replicate data, read-out: MESO1 viability (%)
Procedure, shortened: as §1

[5] = tested on: malignant pleural mesothelioma MESO-1 cells; experiment: Cytotoxicity assay (CellTiter-Glo, 72 h), MESO-1; assay type: cell-based; details: raw replicate data
Procedure, shortened: as §1

[6] = tested on: Jurkat, SKOV-3 and MESO-1 cells; experiment: Cytotoxicity assay, statements for all tested cell lines together; assay type: cell-based; details: Jurkat, SKOV-3 and MESO-1 cells, 72 h
Procedure, shortened: as §1

SMILES: COC1CC2CCC(C)C(O)(O2)C(=O)C(=O)N2CCCCC2C(=O)OC(C(C)CC2CCC(O)C(OC)C2)CC(=O)C(C)C=C(C)C(O)CC(=O)C(C)C=C(C)C=CC=CC=C1C (stereo not shown) [Compound 14]
- viability at 72 h, 9.53674e-05 uM ([1]; conc 9.53674e-5 uM): 100%
- viability at 72 h, 0.000190735 uM ([1]; conc 0.000190735 uM): 99.4%
- viability at 72 h, 0.00038147 uM ([1]; conc 0.00038147 uM): 100%
- viability at 72 h, 0.000762939 uM ([1]; conc 0.000762939 uM): 99.9%
- viability at 72 h, 0.00152588 uM ([1]; conc 0.00152588 uM): 101%
- viability at 72 h, 0.00305176 uM ([1]; conc 0.00305176 uM): 103%
- viability at 72 h, 0.00610352 uM ([1]; conc 0.00610352 uM): 98.3%
- viability at 72 h, 0.012207 uM ([1]; conc 0.012207 uM): 100%
- viability at 72 h, 0.0244141 uM ([1]; conc 0.0244141 uM): 102%
- viability at 72 h, 0.0488281 uM ([1]; conc 0.0488281 uM): 101%
- viability at 72 h, 0.0976562 uM ([1]; conc 0.0976562 uM): 97.1%
- viability at 72 h, 0.195312 uM ([1]; conc 0.195312 uM): 95.7%
- viability at 72 h, 0.390625 uM ([1]; conc 0.390625 uM): 94%
- viability at 72 h, 0.78125 uM ([1]; conc 0.78125 uM): 78.6%
- viability at 72 h, 1.5625 uM ([1]; conc 1.5625 uM): 66.2%
- viability at 72 h, 3.125 uM ([1]; conc 3.125 uM): 45.1%
- viability at 72 h, 6.25 uM ([1]; conc 6.25 uM): 45.6%
- viability at 72 h, 12.5 uM ([1]; conc 12.5 uM): 38.2%
- viability at 72 h, 25 uM ([1]; conc 25 uM): 31.3%
- viability at 72 h, 50 uM ([1]; conc 50 uM): 0.9%
- Jurkat viability (%) (T lymphoma Jurkat cells; conc 9.53674e-5 uM): 99.0% and 99.6%
- Jurkat viability (%) (T lymphoma Jurkat cells; conc 0.000190735 uM): 96.4% and 106.9%
- Jurkat viability (%) (T lymphoma Jurkat cells; conc 0.00038147 uM): 106.3% and 110.1%
- Jurkat viability (%) (T lymphoma Jurkat cells; conc 0.000762939 uM): 94.3% and 106.0%
- Jurkat viability (%) (T lymphoma Jurkat cells; conc 0.00152588 uM): 101.0% and 106.0%
- Jurkat viability (%) (T lymphoma Jurkat cells; conc 0.00305176 uM): 97.8%
- Jurkat viability (%) (T lymphoma Jurkat cells; conc 0.00610352 uM): 106.2% and 106.5%
- Jurkat viability (%) (T lymphoma Jurkat cells; conc 0.012207 uM): 99.3%
- Jurkat viability (%) (T lymphoma Jurkat cells; conc 0.0244141 uM): 108.2% and 105.8%
- Jurkat viability (%) (T lymphoma Jurkat cells; conc 0.0488281 uM): 103.9% and 107.5%
- Jurkat viability (%) (T lymphoma Jurkat cells; conc 0.0976562 uM): 96.8%
- Jurkat viability (%) (T lymphoma Jurkat cells; conc 0.195312 uM): 93.3% and 90.8%
- Jurkat viability (%) (T lymphoma Jurkat cells; conc 0.390625 uM): 89.0% and 89.4%
- Jurkat viability (%) (T lymphoma Jurkat cells; conc 0.78125 uM): 77.6% and 70.2%
- Jurkat viability (%) (T lymphoma Jurkat cells; conc 1.5625 uM): 62.3% and 57.2%
- Jurkat viability (%) (T lymphoma Jurkat cells; conc 3.125 uM): 49.0% and 51.4%
- Jurkat viability (%) (T lymphoma Jurkat cells; conc 6.25 uM): 45.2% and 40.6%
- Jurkat viability (%) (T lymphoma Jurkat cells; conc 12.5 uM): 39.4% and 37.1%
- Jurkat viability (%) (T lymphoma Jurkat cells; conc 25 uM): 31.9% and 26.3%
- Jurkat viability (%) (T lymphoma Jurkat cells; conc 50 uM): 1.0% and 0.558%
- viability at 72 h, 9.53674e-05 uM ([2]; SKOV-3 cells (ovarian adenocarcinoma), conc 9.53674e-5 uM): 105%
- viability at 72 h, 0.000190735 uM ([2]; SKOV-3 cells (ovarian adenocarcinoma), conc 0.000190735 uM): 103%
- viability at 72 h, 0.00038147 uM ([2]; SKOV-3 cells (ovarian adenocarcinoma), conc 0.00038147 uM): 104%
- viability at 72 h, 0.000762939 uM ([2]; SKOV-3 cells (ovarian adenocarcinoma), conc 0.000762939 uM): 102%
- viability at 72 h, 0.00152588 uM ([2]; SKOV-3 cells (ovarian adenocarcinoma), conc 0.00152588 uM): 97.9%
- viability at 72 h, 0.00305176 uM ([2]; SKOV-3 cells (ovarian adenocarcinoma), conc 0.00305176 uM): 98%
- viability at 72 h, 0.00610352 uM ([2]; SKOV-3 cells (ovarian adenocarcinoma), conc 0.00610352 uM): 103%
- viability at 72 h, 0.012207 uM ([2]; SKOV-3 cells (ovarian adenocarcinoma), conc 0.012207 uM): 97.1%
- viability at 72 h, 0.0244141 uM ([2]; SKOV-3 cells (ovarian adenocarcinoma), conc 0.0244141 uM): 106%
- viability at 72 h, 0.0488281 uM ([2]; SKOV-3 cells (ovarian adenocarcinoma), conc 0.0488281 uM): 100%
- viability at 72 h, 0.0976562 uM ([2]; SKOV-3 cells (ovarian adenocarcinoma), conc 0.0976562 uM): 100%
- viability at 72 h, 0.195312 uM ([2]; SKOV-3 cells (ovarian adenocarcinoma), conc 0.195312 uM): 97.3%
- viability at 72 h, 0.390625 uM ([2]; SKOV-3 cells (ovarian adenocarcinoma), conc 0.390625 uM): 99.4%
- viability at 72 h, 12.5 uM ([2]; SKOV-3 cells (ovarian adenocarcinoma), conc 12.5 uM): 81.9%
- viability at 72 h, 25 uM ([2]; SKOV-3 cells (ovarian adenocarcinoma), conc 25 uM): 73.7%
- viability at 72 h, 50 uM ([2]; SKOV-3 cells (ovarian adenocarcinoma), conc 50 uM): 60.7%
- viability at 72 h, 0.78125 uM ([2]; SKOV-3 ovarian adenocarcinoma cells, conc 0.78125 uM): 93.1%
- viability at 72 h, 1.5625 uM ([2]; SKOV-3 ovarian adenocarcinoma cells, conc 1.5625 uM): 91.2%
- viability at 72 h, 3.125 uM ([2]; SKOV-3 ovarian adenocarcinoma cells, conc 3.125 uM): 84.5%
- viability at 72 h, 6.25 uM ([2]; SKOV-3 ovarian adenocarcinoma cells, conc 6.25 uM): 78.2%
- SKOV3 viability (%) ([3]; conc 9.53674e-5 uM): 98.4% and 95.5%
- SKOV3 viability (%) ([3]; conc 0.000190735 uM): 101.1% and 93.2%
- SKOV3 viability (%) ([3]; conc 0.00038147 uM): 101.8% and 98.2%
- SKOV3 viability (%) ([3]; conc 0.000762939 uM): 98.4% and 94.2%
- SKOV3 viability (%) ([3]; conc 0.00152588 uM): 99.8% and 104.2%
- SKOV3 viability (%) ([3]; conc 0.00305176 uM): 98.8% and 92.1%
- SKOV3 viability (%) ([3]; conc 0.00610352 uM): 101.4% and 103.8%
- SKOV3 viability (%) ([3]; conc 0.012207 uM): 94.0% and 97.4%
- SKOV3 viability (%) ([3]; conc 0.0244141 uM): 103.2% and 105.4%
- SKOV3 viability (%) ([3]; conc 0.0488281 uM): 98.2% and 100.0%
- SKOV3 viability (%) ([3]; conc 0.0976562 uM): 101.8% and 110.3%
- SKOV3 viability (%) ([3]; conc 0.195312 uM): 98.6% and 95.1%
- SKOV3 viability (%) ([3]; conc 0.390625 uM): 104.4%
- SKOV3 viability (%) ([3]; conc 0.78125 uM): 86.0% and 88.0%
- SKOV3 viability (%) ([3]; conc 1.5625 uM): 92.8% and 89.9%
- SKOV3 viability (%) ([3]; conc 3.125 uM): 80.6% and 76.1%
- SKOV3 viability (%) ([3]; conc 6.25 uM): 79.5%
- SKOV3 viability (%) ([3]; conc 12.5 uM): 67.2% and 69.9%
- SKOV3 viability (%) ([3]; conc 25 uM): 77.7% and 72.7%
- SKOV3 viability (%) ([3]; conc 50 uM): 51.8% and 56.0%
- viability at 72 h, 9.53674e-05 uM ([4]; conc 9.53674e-5 uM): 96.6%
- viability at 72 h, 0.000190735 uM ([4]; conc 0.000190735 uM): 97.8%
- viability at 72 h, 0.00038147 uM ([4]; conc 0.00038147 uM): 94.8%
- viability at 72 h, 0.000762939 uM ([4]; conc 0.000762939 uM): 104%
- viability at 72 h, 0.00152588 uM ([4]; conc 0.00152588 uM): 102%
- viability at 72 h, 0.00305176 uM ([4]; conc 0.00305176 uM): 94.6%
- viability at 72 h, 0.00610352 uM ([4]; conc 0.00610352 uM): 95.7%
- viability at 72 h, 0.012207 uM ([4]; conc 0.012207 uM): 94.6%
- viability at 72 h, 0.0244141 uM ([4]; conc 0.0244141 uM): 94.7%
- viability at 72 h, 0.0488281 uM ([4]; conc 0.0488281 uM): 96.1%
- viability at 72 h, 0.0976562 uM ([4]; conc 0.0976562 uM): 102%
- viability at 72 h, 0.195312 uM ([4]; conc 0.195312 uM): 90.3%
- viability at 72 h, 0.390625 uM ([4]; conc 0.390625 uM): 93.7%
- viability at 72 h, 0.78125 uM ([4]; conc 0.78125 uM): 79%
- viability at 72 h, 1.5625 uM ([4]; conc 1.5625 uM): 79.3%
- viability at 72 h, 3.125 uM ([4]; conc 3.125 uM): 75%
- viability at 72 h, 6.25 uM ([4]; conc 6.25 uM): 77.6%
- viability at 72 h, 12.5 uM ([4]; conc 12.5 uM): 72.5%
- viability at 72 h, 25 uM ([4]; conc 25 uM): 74.6%
- viability at 72 h, 50 uM ([4]; conc 50 uM): 59.3%
- MESO1 viability (%) ([5]; conc 9.53674e-5 uM): 99.4% and 103.8%
- MESO1 viability (%) ([5]; conc 0.000190735 uM): 95.6% and 99.1%
- MESO1 viability (%) ([5]; conc 0.00038147 uM): 104.7% and 94.5%
- MESO1 viability (%) ([5]; conc 0.000762939 uM): 96.5%
- MESO1 viability (%) ([5]; conc 0.00152588 uM): 101.1% and 98.7%
- MESO1 viability (%) ([5]; conc 0.00305176 uM): 99.6% and 99.1%
- MESO1 viability (%) ([5]; conc 0.00610352 uM): 100.1%
- MESO1 viability (%) ([5]; conc 0.012207 uM): 95.8% and 96.3%
- MESO1 viability (%) ([5]; conc 0.0244141 uM): 100.3% and 106.1%
- MESO1 viability (%) ([5]; conc 0.0488281 uM): 100.9% and 99.1%
- MESO1 viability (%) ([5]; conc 0.0976562 uM): 96.4% and 97.3%
- MESO1 viability (%) ([5]; conc 0.195312 uM): 87.1% and 89.8%
- MESO1 viability (%) ([5]; conc 0.390625 uM): 94.1% and 98.7%
- MESO1 viability (%) ([5]; conc 0.78125 uM): 79.4% and 79.1%
- MESO1 viability (%) ([5]; conc 1.5625 uM): 71.5% and 77.1%
- MESO1 viability (%) ([5]; conc 3.125 uM): 73.4% and 72.1%
- MESO1 viability (%) ([5]; conc 6.25 uM): 74.3% and 73.5%
- MESO1 viability (%) ([5]; conc 12.5 uM): 68.9% and 72.8%
- MESO1 viability (%) ([5]; conc 25 uM): 69.4% and 68.8%
- MESO1 viability (%) ([5]; conc 50 uM): 60.5% and 62.4%
- Effect on cell viability, in words [6]: slightly suppressed the cell viabilities
